Reference: publication PMC10060639, “Prediction and bioactivity of small-molecule antimicrobial peptides from Protaetia brevitarsis Lewis larvae” (Frontiers in Microbiology, 2023)

Key:
Experiment in all cases: agar punch method, inhibition circle
[1] = system: E. coli; format: cell-based, Escherichia coli; conditions: 6 mm hole, 55 μL of 1 mg/mL, NA, 37°C, 16–18 h, mean ± SD, three replicates, + control given per plate group
Experimental: (§1) Staphylococcus aureus CMCC(B) 26003, B. thuringiensis, E. coli, and P. aeruginosa CMCC(B)10104 were cultured in NA medium and C. albicans CMCC(F) 98001 was cultured in SDA medium. They were incubated in a constant-temperature (bacteria: 37°C; fungi: 28°C) incubator for 16–20 h. Thereafter, single colonies were picked and incubated in 50 mL MHB at 160 rpm/min at the optimal growth temperature (bacteria: 37°C; fungi: 28°C). Microbial suspensions of 1 × 10^6 CFU/mL were then prepared ([Chen et al., 2016]).
(§2) 100 μL of 1 × 10^6 CFU/mL microbial suspension (E. coli, P. aeruginosa CMCC(B)10104, B. thuringiensis, S. aureus CMCC(B) 26003, or C. albicans CMCC(F) 98001) was evenly applied to dishes containing 20 mL NA (bacteria) or SDA (fungi). After the microbial solution solidified, six holes per dish were punched with a sterile pipette tip of 6 mm in diameter, with each hole spaced >20 mm apart and > 10 mm apart from the edge of the dish. […] Next, 55 μL of 1 mg/mL control/treatment was added to each hole and incubated in a constant-temperature (bacteria: 37°C; fungi: 28°C) incubator for 16–18 h ([Chen et al., 2016]; [Gong et al., 2022]), with three replicates for each treatment group. The diameter of the inhibition circle was measured using ImageJ software (National Institutes of Health, United States) in order to preliminarily determine whether the candidate peptides had inhibitory activity.

[2] = system: P. aeruginosa CMCC(B)10104; format: cell-based, Pseudomonas aeruginosa; conditions: 6 mm hole, 55 μL of 1 mg/mL, NA, 37°C, 16–18 h, mean ± SD, three replicates, + control given per plate group
Experimental: as §1, §2

[3] = system: B. thuringiensis; format: cell-based, Bacillus thuringiensis; conditions: 6 mm hole, 55 μL of 1 mg/mL, NA, 37°C (Fig. S3C: 30°C), 16–18 h, mean ± SD, three replicates, + control given per plate group
Experimental: as §1, §2

[4] = system: S. aureus CMCC(B) 26003; format: cell-based, Staphylococcus aureus; conditions: 6 mm hole, 55 μL of 1 mg/mL, NA, 37°C, 16–18 h, mean ± SD, three replicates, + control given per plate group
Experimental: as §1, §2

[5] = system: C. albicans CMCC(F) 98001; format: cell-based, Candida albicans; conditions: 6 mm hole, 55 μL of 1 mg/mL, SDA, 28°C, 16–18 h, mean ± SD, three replicates, + control given per plate group
Experimental: as §1, §2

AFQRTIRKFL [FD5]
0 mm: Inhibition circle diameter (mm) E. coli [1] | Inhibition circle diameter (mm) P. aeruginosa CMCC(B)10104 [2] | Inhibition circle diameter (mm) B. thuringiensis [3] | Inhibition circle diameter (mm) S. aureus CMCC(B) 26003 [4] | Inhibition circle diameter (mm) C. albicans CMCC(F) 98001 [5]

ANWDKVIR [FD13]
0 mm: Inhibition circle diameter (mm) E. coli [1] | Inhibition circle diameter (mm) P. aeruginosa CMCC(B)10104 [2] | Inhibition circle diameter (mm) B. thuringiensis [3] | Inhibition circle diameter (mm) S. aureus CMCC(B) 26003 [4] | Inhibition circle diameter (mm) C. albicans CMCC(F) 98001 [5]

FPVGRVHRLL [FD11]
0 mm: Inhibition circle diameter (mm) E. coli [1] | Inhibition circle diameter (mm) P. aeruginosa CMCC(B)10104 [2] | Inhibition circle diameter (mm) B. thuringiensis [3] | Inhibition circle diameter (mm) S. aureus CMCC(B) 26003 [4] | Inhibition circle diameter (mm) C. albicans CMCC(F) 98001 [5]

IRAWVAWRNR [FD3]
0 mm: Inhibition circle diameter (mm) E. coli [1] | Inhibition circle diameter (mm) P. aeruginosa CMCC(B)10104 [2] | Inhibition circle diameter (mm) B. thuringiensis [3] | Inhibition circle diameter (mm) S. aureus CMCC(B) 26003 [4] | Inhibition circle diameter (mm) C. albicans CMCC(F) 98001 [5]

KLLVPRCR [FD6]
0 mm: Inhibition circle diameter (mm) E. coli [1] | Inhibition circle diameter (mm) P. aeruginosa CMCC(B)10104 [2] | Inhibition circle diameter (mm) B. thuringiensis [3] | Inhibition circle diameter (mm) S. aureus CMCC(B) 26003 [4] | Inhibition circle diameter (mm) C. albicans CMCC(F) 98001 [5]

LARTLKRLGM [FD2]
0 mm: Inhibition circle diameter (mm) E. coli [1] | Inhibition circle diameter (mm) P. aeruginosa CMCC(B)10104 [2] | Inhibition circle diameter (mm) B. thuringiensis [3] | Inhibition circle diameter (mm) S. aureus CMCC(B) 26003 [4] | Inhibition circle diameter (mm) C. albicans CMCC(F) 98001 [5]

LVTRAAFHGKKV [FD8]
0 mm: Inhibition circle diameter (mm) E. coli [1] | Inhibition circle diameter (mm) P. aeruginosa CMCC(B)10104 [2] | Inhibition circle diameter (mm) B. thuringiensis [3] | Inhibition circle diameter (mm) S. aureus CMCC(B) 26003 [4] | Inhibition circle diameter (mm) C. albicans CMCC(F) 98001 [5]

RIGRLVTRAAF [FD7]
0 mm: Inhibition circle diameter (mm) E. coli [1] | Inhibition circle diameter (mm) P. aeruginosa CMCC(B)10104 [2] | Inhibition circle diameter (mm) B. thuringiensis [3] | Inhibition circle diameter (mm) S. aureus CMCC(B) 26003 [4] | Inhibition circle diameter (mm) C. albicans CMCC(F) 98001 [5]

SLARAGKVR [FD9]
0 mm: Inhibition circle diameter (mm) E. coli [1] | Inhibition circle diameter (mm) P. aeruginosa CMCC(B)10104 [2] | Inhibition circle diameter (mm) B. thuringiensis [3] | Inhibition circle diameter (mm) S. aureus CMCC(B) 26003 [4] | Inhibition circle diameter (mm) C. albicans CMCC(F) 98001 [5]

STLHLVLRLR [FD16]
0 mm: Inhibition circle diameter (mm) E. coli [1] | Inhibition circle diameter (mm) P. aeruginosa CMCC(B)10104 [2] | Inhibition circle diameter (mm) B. thuringiensis [3] | Inhibition circle diameter (mm) S. aureus CMCC(B) 26003 [4] | Inhibition circle diameter (mm) C. albicans CMCC(F) 98001 [5]

VACAKRVVR [FD1]
0 mm: Inhibition circle diameter (mm) E. coli [1] | Inhibition circle diameter (mm) P. aeruginosa CMCC(B)10104 [2] | Inhibition circle diameter (mm) B. thuringiensis [3] | Inhibition circle diameter (mm) S. aureus CMCC(B) 26003 [4] | Inhibition circle diameter (mm) C. albicans CMCC(F) 98001 [5]
